In patent publication US20040070093A1, “Process for preparing microparticles through phase inversion phenomena” (Brown University Research Foundation, priority 1995, published 2004):

Test: in vivo
Details: rat, serum, po, 25 mg/kg
Method: Dicumarol containing microspheres were produced as described above in Example 2, subsection 1. Equal doses of dicumarol, spray dried dicumarol and polyanhydride (FA:SA) 20:80 encapsulated dicumarol (25 mg drug/kg body weight) suspended in 1.5 ml maple syrup were fed to catheterized rats (250-350 g). Blood samples were taken at regular intervals and serum was assayed for dicumarol concentrations using a UV spectrophotometric method.

With `O=c1oc2ccccc2c(O)c1Cc1c(O)c2ccccc2oc1=O` [SPRAY DICUMAROL CONTROL, dicumarol] the AUC was 232 ± 19.2 µg·h/mL, the Cmax was 17900 ± 1220 ng/mL and the Tmax was 9.42 ± 1.36 h. It also gave a half-life of 16.2 ± 0.87 h.
